Experimental data taken from patent publication US20260248826A1, “DRUG COMBINATION FOR TREATMENT OF PANCREATIC CANCER” (priority 2023, published 2026).

Key:
[1] = system: pancreatic and ovarian tumor cells; assay: In vitro antitumor activity (activated with alkaline phosphatase to release triptolide); format: cell-based
[2] = system: pancreatic and ovarian cancer; assay: Daily administration in models of pancreatic and ovarian cancer; format: in vivo; conditions: administered daily
[3] = system: extracellular matrix (ECM) of the pancreatic tumors; conditions: by downregulating hyaluronan synthesis and preventing collagen cross linking; cited from earlier work
[4] = Blood counts of patients during minnelide dosing and withholding; format: in vivo, human
From the text: A drop in blood counts is usually seen within the first 5-7 days of the start of minnelide and resolves in 4-8 days of withholding of minnelide.
CBC with differential was done on days 1, 8, 15, 22 and more frequently as clinically indicated. Patient were hospitalized for close monitoring when the ANC level was <1000 mm^3 (grade 3 or higher) or platelet was <100,000 cells/mm^3 at any time. Minnelide™ Capsules would not resume until the ANC level was ≥1500 mm^3 or platelet was ≥100,000 cells/mm^3.

[5] = Phase 1 study of minnelide given intravenously in patients with Advanced GI Tumors; format: in vivo, human; conditions: IV
From the text: Intravenous Minnelide. Phase 1, Multi-Center, Open-Label, Dose-Escalation, Safety, Pharmacokinetic, and Pharmacodynamic Study of minnelide given intravenously daily for 21 days followed by 7 days off schedule in patients with Advanced GI Tumors. A second dosing schedule of minnelide given intravenously QD for 5 days with 2 days off for three weeks followed by a 7-day rest period was also explored during this study. A total of 45 patients enrolled in the Phase 1 study, however 3 patients were not dosed with study drug. The remaining 42 patients were dosed in the study. The primary reason for the discontinuation of treatment was disease progression. There were 6 deaths in the study, but these occurred after the study drug had ended and were within the 30-day follow-up period. […] One patient who died from respiratory failure, and this was also found to be not related to use of the study drug.

S2-VP10 tumor cells = assay: Orthotopic S2-VP10 pancreatic tumor model in athymic nude mice; format: in vivo
Description: A preclinical study of minnelide was conducted in mice. Female athymic nude mice (NCI nu/nu; 4 to 6 weeks old) were anesthetized with xylazine/ketamine, and S2-VP10 tumor cells embedded in Matrigel were implanted into the pancreatic tail (3×10^5 cells/mouse). Twelve days after tumor implantation (Day 0), animals were randomized to receive saline, nab-paclitaxel plus gemcitabine (Gem/Abx; 250/25 mg/kg), or minnelide plus nab-paclitaxel plus gemcitabine (Minn/Gem/Abx; 0.15/250/25 mg/kg or 0.21/250/25 mg/kg) (10 animals/group). Minnelide was administered once daily (QD) by oral gavage (PO). Treatment continued until Day 28 when animals were sacrificed.

[6] = system: transforming growth factor-β (TGFβ) signaling in cancer associated fibroblasts (CAFs); conditions: dose of 0.2 mg/kg; cited from earlier work
[7] = Phase 1 study of Minnelide Capsules alone or in combination with protein-bound paclitaxel in patients with Advanced Solid Tumors; format: in vivo, human
From the text: Oral Minnelide. A Phase 1, Multi-Center, Open-Label, Dose-Escalation, Safety, Pharmacokinetic, and Pharmacodynamic Study of Minnelide™ Capsules given alone or in combination with protein-bound paclitaxel in patients with Advanced Solid Tumors.
A total of 51 patients have been enrolled and dosed in the Phase 1 study, of whom […] were evaluable for safety (34 in the monotherapy regimen and 16 in the combination regimen). Twenty-nine patients have completed treatment in the monotherapy regimen, and 6 dose escalations have occurred. In the monotherapy regimen, one DLT has been observed, which occurred in the 1.25 mg cohort. […] As a result of this DLT, and out of an abundance of caution, 3 additional patients were enrolled in the 1.0 mg cohort.
A total of 17 patients had been enrolled in combination therapy regimen. Two DLTs have been observed: one at the 0.25 mg minnelide and 125 mg/m^2 protein-bound paclitaxel dose level and one at the 0.25 mg minnelide and 100 mg/m^2 protein-bound paclitaxel dose level. […] A total of 2 SAEs occurred in this patient, neither of which were deemed related to the IP. As this was the first patient in the combination regimen to receive protein-bound paclitaxel with minnelide, the combination regimen was put on enrolment hold until further escalation parameters were introduced. The second DLT occurred in the first patient of the 0.25 mg minnelide and 100 mg/m^2 protein-bound paclitaxel cohort: a Grade 5 event of sepsis.

[8] = system: S2-013, S2-VP10 and Hs766T; conditions: metastatic lines; cited from earlier work
[9] = system: MIA-PaCa2 and PANC-1 pancreatic cancer cell lines; conditions: after incubation with triptolide; cited from earlier work
[10] = system: pancreatic tumor cells and CAFs; conditions: cited from earlier work
[11] = Day 28, minnelide 0.15 mg/kg QD PO added to Gem/Abx 250/25 mg/kg, compared with Gem/Abx alone
[12] = Day 28, minnelide 0.21 mg/kg QD PO added to Gem/Abx 250/25 mg/kg, compared with Gem/Abx alone
[13] = overall, daily oral minnelide concurrently with Gem/Abx, compared with minnelide or Gem/Abx alone
[14] = oral, monotherapy and combination

## CC(C)[C@]12O[C@H]1[C@@H]1O[C@]13[C@]1(O[C@H]1C[C@H]1C4=C(CC[C@@]13C)C(=O)OC4)[C@@H]2OCOP(=O)([O-])[O-].[Na+].[Na+] [minnelide, disodium; [(1S,2S,4S,5S,7S,8R,9R,11S,13S)-1-methyl-17-oxo-7-propan-2-yl-3,6,10,16-tetraoxaheptacyclo[11.7.0.0^2,4.0^2,9.0^5.7.09^,11.0^14,18]icos-14 (18)-en-8-yl]oxymethyl phosphate]
[1]
  antitumor activity in vitro: potent antitumor activity
[2]
  animal survival: markedly improved
  tumor volumes: significantly reduced
  tumor weights: significantly reduced
[3]
  extracellular matrix (ECM) of pancreatic tumors: depleted
[4]; from the start of minnelide
  time to drop in blood counts: 5 to 7 days
[4]; withholding of minnelide
  time to resolution of drop in blood counts: 4 to 8 days
[5]
  Anemia and thrombocytopenia Grade 3 and 4, drug related, patients: 22%
  Serious Adverse Events related to the study drug: six
  Serious Adverse Events, total: 28
  TEAEs leading to discontinuation probably related to study drug, considered DLTs: two
  neutropenia grade 3 and 4 of short duration, drug related: observed at all dose levels
  patients with Serious Adverse Events: 17
  patients with at least 1 AE considered related to the study drug: 32
  patients with neutropenic fever and neutropenic infection, drug related: three
[5]; 42 patients dosed, within 30-day follow-up, not related to study drug
  deaths in the study: 6
[5]; all Grade 3
  patients who discontinued the study drug due to TEAEs: 3
[5]; hypoalbuminemia, anemia, hypoproteinemia, fatigue, neutropenia, leukopenia, thrombocytopenia, nausea, hypocalcemia, diarrhea, hyperphosphatemia, constipation, vomiting, hyponatremia, lymphopenia, abdominal pain, dehydration, hyperglycemia, peripheral edema, hypophosphatemia, headache
  incidence of most commonly reported TEAEs regardless of causality: > 20%
[5]; nausea, vomiting, diarrhea, constipation, anorexia, stomatitis, cerebellar toxicity, embolism, dyspnea
  other possibly related side effects of any grade, patients: ≤ 3%
[5]; not receiving treatment
  time to resolution of neutropenia: within a couple of days
S2-VP10 tumor cells; [11]
  tumor volumes: further reduced
  tumor weights: further reduced
S2-VP10 tumor cells; [12]
  tumor volumes: further reduced
  tumor weights: further reduced
S2-VP10 tumor cells; [13]
  tumor volumes: decreased
  tumor weights: decreased
[6]
  TGFβ signaling in CAFs: disrupts
[7]; 0.25 mg minnelide and 100 mg/m^2 protein-bound paclitaxel cohort
  DLTs in five additional patients: no DLTs observed
[7]; 0.25 mg minnelide and 100 mg/m^2 protein-bound paclitaxel dose level, Grade 5 sepsis
  DLTs observed: one
[7]; 0.25 mg minnelide and 125 mg/m^2 protein-bound paclitaxel dose level
  DLTs observed: one
[7]; combination regimen with protein-bound paclitaxel, 17 patients
  DLTs observed: Two
[7]; oral monotherapy regimen, in the 1.25 mg cohort, Grade 5 sepsis
  DLT observed: one
[7]; oral, combination therapy with protein-bound paclitaxel
  related SAEs by type: one event each of Grade 5 sepsis and Grade 2 esophagitis
[7]; [14]
  SAEs related to the investigational product: 8
  SAEs, total: 45
  patients with SAEs: 25
[7]; oral, patients on monotherapy
  related SAEs by type: 1 event each of Grade 5 sepsis, Grade 4 sepsis, Grade 3 nausea, Grade 3 polymicrobial bacteraemia, Grade 3 intractable nausea, Grade 3 hypokalaemia, and Grade 2 enteritis
[7]; regardless of causality
  AE incidence: Lower extremity oedema: 24%
  AE incidence: abdominal distension: 12%
  AE incidence: abdominal pain: 30%
  AE incidence: anemia: 18%
  AE incidence: back pain: 12%
  AE incidence: chills: 12%
  AE incidence: constipation: 24%
  AE incidence: dehydration: 18%
  AE incidence: dizziness: 12%
  AE incidence: dyspnoea: 12%
  AE incidence: fatigue: 18%
  AE incidence: gastroesophageal reflux disease: 12%
  AE incidence: leukopenia: 12%
  AE incidence: local swelling: 18%
  AE incidence: nausea: 24%
  AE incidence: neutropenia: 30%
  AE incidence: neutrophil count decreased: 13%
  AE incidence: pain: 12%
  AE incidence: pleural effusion: 12%
  AE incidence: pyrexia: 24%
  AE incidence: skin irritation: 12%
  AE incidence: vomiting: 18%

## CC(C)[C@]12O[C@H]1[C@@H]1O[C@]13[C@]1(O[C@H]1C[C@H]1C4=C(CC[C@@]13C)C(=O)OC4)[C@@H]2O [triptolide]
[8]
  autophagic cell death: induces autophagic cell death
[9]
  caspase-3 activity: significantly increased
  cytochrome c release from mitochondria into the cytosol: significantly increased
[10]; both cell types, mRNA and protein levels
  SE-associated genes (BRD4, MYC, RNA Pol II, Collagen 1) expression: downregulation
[10]; both pancreatic tumor cells and CAFs
  cytotoxicity: cytotoxic
